Laboratory results: ChEMBL document CHEMBL3039007, “Structure-based identification of OATP1B1/3 inhibitors” (Mol Pharmacol, 2013)

How the values were obtained:
[1] = target: T1, Solute carrier organic anion transporter family member 1B3 (Homo sapiens, UniProt Q9NPD5); details: chinese hamster, cho, 10 µM
T1 sequence (Q9NPD5 whole entry): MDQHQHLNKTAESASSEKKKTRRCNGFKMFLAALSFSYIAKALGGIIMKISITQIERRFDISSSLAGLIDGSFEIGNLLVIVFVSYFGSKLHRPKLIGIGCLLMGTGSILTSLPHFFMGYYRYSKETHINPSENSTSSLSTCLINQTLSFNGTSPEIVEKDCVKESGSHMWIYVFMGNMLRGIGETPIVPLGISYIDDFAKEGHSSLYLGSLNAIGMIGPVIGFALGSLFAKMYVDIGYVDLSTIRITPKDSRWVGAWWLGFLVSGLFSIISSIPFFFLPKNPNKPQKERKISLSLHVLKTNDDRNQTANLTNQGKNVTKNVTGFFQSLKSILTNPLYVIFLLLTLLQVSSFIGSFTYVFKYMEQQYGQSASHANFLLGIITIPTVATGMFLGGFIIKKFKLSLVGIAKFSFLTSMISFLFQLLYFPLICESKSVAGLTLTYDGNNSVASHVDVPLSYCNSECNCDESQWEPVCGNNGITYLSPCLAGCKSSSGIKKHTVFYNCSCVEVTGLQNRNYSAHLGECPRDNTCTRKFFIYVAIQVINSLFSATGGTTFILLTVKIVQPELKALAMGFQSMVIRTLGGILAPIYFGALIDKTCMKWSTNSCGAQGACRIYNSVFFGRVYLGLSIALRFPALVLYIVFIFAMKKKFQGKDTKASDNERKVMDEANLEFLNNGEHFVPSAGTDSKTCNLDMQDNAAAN

[2] = target: T2, Solute carrier organic anion transporter family member 1B1 (Homo sapiens, UniProt Q9Y6L6); details: chinese hamster, cho, 10 µM
T2 sequence (Q9Y6L6 whole entry): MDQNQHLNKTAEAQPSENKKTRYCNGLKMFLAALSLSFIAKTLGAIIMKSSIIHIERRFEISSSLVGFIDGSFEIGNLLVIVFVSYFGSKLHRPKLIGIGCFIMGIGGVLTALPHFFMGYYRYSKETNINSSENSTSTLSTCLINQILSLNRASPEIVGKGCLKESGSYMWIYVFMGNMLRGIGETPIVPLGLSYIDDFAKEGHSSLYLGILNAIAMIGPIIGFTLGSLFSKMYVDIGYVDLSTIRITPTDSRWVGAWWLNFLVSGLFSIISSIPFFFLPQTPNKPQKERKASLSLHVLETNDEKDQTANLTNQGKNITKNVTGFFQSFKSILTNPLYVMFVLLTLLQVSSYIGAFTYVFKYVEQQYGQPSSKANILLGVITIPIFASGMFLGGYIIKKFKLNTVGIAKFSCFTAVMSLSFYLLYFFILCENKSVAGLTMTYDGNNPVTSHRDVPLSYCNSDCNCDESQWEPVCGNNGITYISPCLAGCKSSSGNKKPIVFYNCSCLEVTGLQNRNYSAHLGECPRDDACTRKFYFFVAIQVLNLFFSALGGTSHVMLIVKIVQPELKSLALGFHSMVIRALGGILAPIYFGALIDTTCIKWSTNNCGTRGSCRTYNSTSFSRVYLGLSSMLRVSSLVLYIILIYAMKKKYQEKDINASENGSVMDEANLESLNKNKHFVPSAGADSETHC

COc1cc2c(cc1OC)[C@@H]1Cc3ccc(OC)c(OC)c3CN1CC2 [TETRAHYDROPALMATINE]
residual activity [1]: 106.9% | residual activity [2]: 186.7%

COc1ccc2c(c1)OC[C@@H](Cc1ccc(OC)c(OC)c1)[C@H]2O [TETRAHYDROSAPPANONE A TRIMETHYL ETHER]
residual activity [1]: 134.3% | residual activity [2]: 93.05%

O=C1C(O)=C(O)C(=O)C(O)=C1O [TETROQUINONE]
residual activity [1]: 83.15% | residual activity [2]: 121.2%

O=C1CCC(N2C(=O)c3ccccc3C2=O)C(=O)N1 (stereo not drawn) [THALIDOMIDE]
residual activity [1]: 101% | residual activity [2]: 82.94%

O=c1c(O)cccc2c([C@H]3Oc4cc(O)cc(O)c4C[C@H]3O)cc(O)c(O)c12 [THEAFLAVANIN]
residual activity [1]: 85.59% | residual activity [2]: 60%

O=C(O[C@@H]1Cc2c(O)cc(O)cc2O[C@@H]1c1cc(O)c(=O)c2c(O)c(O)cc([C@H]3Oc4cc(O)cc(O)c4C[C@H]3O)c2c1)c1cc(O)c(O)c(O)c1 [THEAFLAVIN MONOGALLATES]
residual activity [1]: 103.8% | residual activity [2]: 89.76%

O=c1c(O)cc([C@H]2Oc3cc(O)cc(O)c3C[C@H]2O)cc2c([C@H]3Oc4cc(O)cc(O)c4C[C@H]3O)cc(O)c(O)c12 [THEAFLAVIN]
residual activity [1]: 75.27% | residual activity [2]: 53%

CCNC(=O)CC[C@H](N)C(=O)O [THEANINE]
residual activity [1]: 82.21% | residual activity [2]: 120.6%

O=C(O[C@@H]1Cc2c(O)cc(O)cc2O[C@@H]1c1cc(O)c(O)c(O)c1-c1c([C@H]2Oc3cc(O)cc(O)c3C[C@H]2OC(=O)c2cc(O)c(O)c(O)c2)cc(O)c(O)c1O)c1cc(O)c(O)c(O)c1 [THEASINENSIN A]
residual activity [1]: 94.99% | residual activity [2]: 61.1%

Cn1c(=O)c2[nH]cnc2n(C)c1=O.O [THEOPHYLLINE]
residual activity [1]: 72.46% | residual activity [2]: 90.11%

c1ccc2[nH]c(-c3cscn3)nc2c1 [THIABENDAZOLE]
residual activity [1]: 94.36% | residual activity [2]: 76.75%

CS(=O)(=O)c1ccc([C@@H](O)[C@@H](CO)NC(=O)C(Cl)Cl)cc1 [THIAMPHENICOL]
residual activity [1]: 103.5% | residual activity [2]: 102.1%

C=CCC1(C(C)CCC)C(=O)N=C([S-])NC1=O.[Na+] (stereo not drawn) [THIAMYLAL SODIUM]
residual activity [1]: 103.8% | residual activity [2]: 84.73%

CCCC(C)C1(CC)C(=O)[N-]C(=S)NC1=O.[Na+] (stereo not drawn) [THIOPENTAL SODIUM]
residual activity [1]: 84.51% | residual activity [2]: 73.02%

COC(=O)NC(=S)Nc1ccccc1NC(=S)NC(=O)OC [THIOPHANATE METHYL]
residual activity [1]: 92.95% | residual activity [2]: 119%

S=P(N1CC1)(N1CC1)N1CC1 [THIOTEPA]
residual activity [1]: 70.43% | residual activity [2]: 67.53%

CN1CCN(CC/C=C2/c3ccccc3Sc3ccc(S(=O)(=O)N(C)C)cc32)CC1 [THIOTHIXENE]
residual activity [1]: 115.8% | residual activity [2]: 72.97%

O=c1cc[nH]c(=S)[nH]1 [THIOURACIL]
residual activity [1]: 77.62% | residual activity [2]: 95.34%

CN(C)C(=S)SSC(=S)N(C)C [THIRAM]
residual activity [1]: 99.01% | residual activity [2]: 104.4%

COc1ccc(CN(CCN(C)C)c2ncccn2)cc1.Cl [THONZYLAMINE HYDROCHLORIDE]
residual activity [1]: 91.98% | residual activity [2]: 88.59%

CC1=CC(=O)C(C(C)C)=CC1=O [THYMOQUINONE]
residual activity [1]: 98.24% | residual activity [2]: 126.4%

CCN(CC)CCNC(=O)c1cc(S(C)(=O)=O)ccc1OC.Cl [TIAPRIDE HYDROCHLORIDE]
residual activity [1]: 94.93% | residual activity [2]: 106.2%

C[C@@H]1CC[C@@]2(OC1)O[C@H]1C[C@H]3[C@@H]4CC[C@H]5C[C@@H](O)CC[C@]5(C)[C@H]4CC[C@]3(C)[C@H]1[C@@H]2C [TIGOGENIN]
residual activity [1]: 106.8% | residual activity [2]: 97%

CNC(=N)NCCC[C@H](N)C(=O)O [TILARGININE]
residual activity [1]: 97.33% | residual activity [2]: 94.97%
